Residues, ends and D or L forms follow the SMILES beside them. *: point of attachment. Cbz = O=C(OCc1ccccc1)*
Columns and labels:
proteasome = conditions: cited from earlier work
mouse lungs = conditions: in vivo; cited from earlier work
[1] = tested on: human type B synoviocyte cultures infected with rAAV(mIL-4); assay: Real-time PCR of transgene mRNA in human type B synoviocytes infected with rAAV(mIL-4); assay type: cell-based; conditions: 40 μM zLLL for 24 hours
Description: Human type B synoviocyte cultures were infected with rAAV(mIL-4). Ten days later, some cells were exposed to 40 μM of zLLL for 24 hours. Cells were harvested and RNA was extracted, reverse transcribed, and subjected to real-time PCR using a LightCycler™ System (Roche Molecular Biochemicals, Indianapolis, Ind.) with the FastStart DNA Master SYBR Green I reaction mix and gene specific primers. LIGHTCYCLER Quantification Software v5.32 was used to compare amplification in the samples during the log-linear phase. Data are normalized to the AAV(mIL-4) samples, which are given a value of 1. The ZLLL group was not infected with AAV (IL-4).
Synoviocytes transduced with AAV(mIL-4) were exposed to zLLL and RNA was extracted and subjected to real-time PCR. zLLL induced a 250-fold increase in mIL-4 mRNA with no increase in the constituitively-expressed gene, GAPDH (FIG. 4).

other cell types = conditions: cited from earlier work
[2] = tested on: RA synovium implanted into SCID mice; assay: Luciferase expression in RA synovium implanted into SCID mice, injected with AAV(Luc), after in vivo zLLL; conditions: zLLL into the synovial tissue or intraperitoneally two weeks after AAV(Luc); tissue removed 48 hours later
Description: RA synovium was implanted into SCID mice. Two weeks later, synovial tissues were injected with 6.8×10^10 particles of AAV(Luc). Two weeks following rAAV administration, zLLL was administered in a 100 μl volume either directly into the synovial tissue or intraperitoneally. Synovial tissues were removed 48 hours later, homogenized, and assayed for luciferase content.
The optimal in vivo dose and route of administration is unclear from this preliminary study and will be addressed in the proposed experiments.

[3] = tested on: human type B synoviocytes infected with rAAV(mIL-10); assay: Mouse IL-10 transgene expression (ELISA of supernatants) in human type B synoviocytes infected with rAAV(mIL-10); assay type: cell-based
Description: Synoviocytes were infected with rAAV on day 0. On day 1, cells were exposed to the indicated amounts of zLLL for 24 hours. Supernatants were harvested on days 3 and 7 and assayed by ELISA for mouse IL-10.
Synoviocytes were infected with rAAV on day 0. At various times (indicted by the arrows), some cells were exposed to 40 μM of zLLL for 24 hours (A) or to recombinant adenovirus lacking a transgene (B). Supernatants were harvested and assayed by ELISA for mouse IL-10.
Kwon, C. Mah, and A. Srivastava. 2000. Impaired intracellular trafficking of adeno-associated virus type 2 vectors limits efficient transduction of murine fibroblasts. J Virol 74:992-996) to determine whether human synoviocytes could be made to express a transgene following AAV-mediated gene transfer. […] This is inconsistent with the proposed mechanism of action of zLLL, that of increasing viral trafficking to the nucleus, as transgene expression should be stable once the viral genome reaches the nucleus and sufficient second strand synthesis occurs.
To further explore this finding, synovial cells were re-exposed to zLLL following the loss of transgene expression. […] In each case, expression peaked 2-3 days following exposure to zLLL and then dropped off. We were able to re-induce transgene expression as far out as 25 days after infection. We have not yet looked at further time points, but we can already conclude that the transgene persists in the synoviocytes for an extended period of time and that its expression can be regulated by zLLL.
This is inconsistent with the proposed mechanism of action of zLLL, that of increasing viral trafficking to the nucleus, as transgene expression should be stable once the viral genome reaches the nucleus and sufficient second strand synthesis occurs.
To further explore this finding, synovial cells were re-exposed to zLLL following the loss of transgene expression. […] In each case, expression peaked 2-3 days following exposure to zLLL and then dropped off. We were able to reinduce transgene expression as far out as 25 days after infection. We have not yet looked at further time points, but we can already conclude that the transgene persists in the synoviocytes for an extended period of time and that its expression can be regulated by zLLL.

SMILES | specificity for the proteasome / other proteases inhibited (proteasome) | rAAV-mediated transduction in mouse lungs (mouse lungs) | change in constitutively expressed gene GAPDH mRNA [1] | increase in mIL-4 mRNA ([1]; ten days after infection, normalized to AAV(mIL-4) samples) [fold] | nuclear accumulation of rAAV particles and the rAAV genome (other cell types) | in vivo transgene (luciferase) expression [2] | transgene expression on re-exposure after loss of expression ([3]; 40 μM zLLL for 24 hours at various times) | expression of a mouse IL-10 transgene ([3]; 3 days following infection with rAAV, zLLL for 24 hours on day 1, dose dependent) | expression of mouse IL-10 transgene by day 7 ([3]; day 7 after infection, single 24 h zLLL exposure on day 1) | latest time after infection at which transgene expression was re-induced ([3]; days after infection) [days] | time of peak expression following exposure ([3]; following each exposure to zLLL) [days]
CC(=O)N[C@@H](CSC(=O)[C@]1([C@@H](O)C(C)C)NC(=O)[C@H](C)[C@@H]1O)C(=O)O [Lactacystin] | high specificity for the proteasome | – | – | – | – | – | – | – | – | – | –
CC(C)C[C@@H](C=O)NC(=O)[C@H](CC(C)C)NC(=O)[C@H](CC(C)C)NC(=O)OCc1ccccc1 [zLLL, Carbobenzoxyl-L-leucyl-L-leucyl-L-leucinal] (Cbz-Leu-Leu-Leu-aldehyde) | can also inhibit certain lysosomal cysteine proteases and the calpains | enhance rAAV-mediated transduction | no increase | 250 | increase nuclear accumulation | dramatically enhanced | could be repeatedly induced | dramatically enhanced | expression was lost | 25 | 2 to 3

— patent publication US20030003583A1, “Regulation of transgene expression following AAV transduction” (priority 2001, published 2003)
